The record followed here is US8026243B2, “[4,5′]Bipyrimidinyl-6,4′-diamine derivatives as protein kinase inhibitors” (Novartis AG, priority 2006, dated 2011).

The structures appear in SMILES notation.

The assay deals with T1, Ba/F3-TEL-FGFR3 cells (Homo sapiens, UniProt P22607).
T1 construct: fused on or other part: The N-terminal oligomerising part of TEL (ETV6) is fused before the intracellular kinase part of FGFR3; P41212 (Transcription factor ETV6)
The experiment in a line: FGFR3 cellular assay: proliferation of transformed Ba/F3-TEL-FGFR3 cells (AlamarBlue). The class given is cell-based. Particulars: 48 hours incubation. The essentials:
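Ba/F3-TEL-FGFR3 cells (5000/well) in RPMI 1640 with 10% FBS, exposed to twelve-point 1:3 compound dilutions for 48 h. Proliferation read by AlamarBlue (10% final, 4 h at 37 °C), fluorescence Ex530/Em580; IC50 from linear regression of percent inhibition.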

T1 sequence (P22607 whole entry, change not shown, the tested form may be a part): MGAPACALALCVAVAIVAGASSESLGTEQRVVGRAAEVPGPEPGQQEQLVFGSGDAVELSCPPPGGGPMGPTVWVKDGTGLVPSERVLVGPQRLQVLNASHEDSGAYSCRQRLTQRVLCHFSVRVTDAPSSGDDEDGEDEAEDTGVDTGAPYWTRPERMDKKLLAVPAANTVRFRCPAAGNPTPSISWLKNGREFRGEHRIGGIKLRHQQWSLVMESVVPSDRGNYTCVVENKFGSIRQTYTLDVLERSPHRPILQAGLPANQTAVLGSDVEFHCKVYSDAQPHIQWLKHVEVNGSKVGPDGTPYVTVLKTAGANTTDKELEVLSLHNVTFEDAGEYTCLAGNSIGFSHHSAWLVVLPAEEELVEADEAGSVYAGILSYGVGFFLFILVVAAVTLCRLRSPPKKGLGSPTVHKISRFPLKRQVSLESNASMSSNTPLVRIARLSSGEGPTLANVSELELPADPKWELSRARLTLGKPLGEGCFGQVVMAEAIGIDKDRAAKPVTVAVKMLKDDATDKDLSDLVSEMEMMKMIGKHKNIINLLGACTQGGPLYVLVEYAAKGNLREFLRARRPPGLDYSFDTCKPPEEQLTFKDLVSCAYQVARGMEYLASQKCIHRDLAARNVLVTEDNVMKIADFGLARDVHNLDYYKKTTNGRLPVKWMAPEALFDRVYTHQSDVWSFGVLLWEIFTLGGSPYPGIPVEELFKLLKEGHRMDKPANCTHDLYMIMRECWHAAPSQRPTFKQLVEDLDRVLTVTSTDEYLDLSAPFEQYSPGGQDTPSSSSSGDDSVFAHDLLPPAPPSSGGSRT

In the case of `COc1cc(OC)c(Cl)c(Nc2nccnc2-c2cc(Nc3ccc(CN4CCOCC4)cn3)ncn2)c1Cl` [Compound 94, {6-[3-(2,6-Dichloro-3,5-dimethoxy-phenylamino)-pyrazin-2-yl]-pyrimidin-4-yl}-(5-morpholin-4-ylmethyl-pyridin-2-yl)-amine], where the note is “class symbols”, the GI50 (usually the concentration giving 50% growth inhibition) was less than 100 nM.

The molecule `COc1cc(OC)c(Cl)c(Nc2nccnc2-c2cc(Nc3ccc(CN4CCOCC4)cn3)ncn2)c1F` [Compound 95, {6-[3-(2-chloro-3,5-dimethoxy-6-fluoro phenylamino)-pyrazin-2-yl]-pyrimidin-4-yl}-(5-morpholin-4-ylmethyl-pyridin-2-yl)-amine] showed a concentration for 50% growth inhibition (GI50) (class symbols) of less than 100 nM.

`COc1cc(OC)c(Cl)c(Nc2nccnc2-c2cc(Nc3cc(CN4CCOCC4)ccn3)ncn2)c1Cl` [Compound 96, {6-[3-(2,6-Dichloro-3,5-dimethoxy-phenylamino)-pyrazin-2-yl]-pyrimidin-4-yl}-(4-morpholin-4-ylmethyl-pyridin-2-yl)-amine] registered a GI50 (class symbols) of less than 100 nM.

`COc1cc(OC)c(Cl)c(Nc2nccnc2-c2cc(Nc3cc(CN4CCOCC4)ccn3)ncn2)c1F` [Compound 97, {6-[3-(2-chloro-3,5-dimethoxy-6-fluoro phenylamino)-pyrazin-2-yl]-pyrimidin-4-yl}-(4-morpholin-4-ylmethyl-pyridin-2-yl)-amine]: where the note is “class symbols”, the GI50 is less than 100 nM.

With `COc1cc(OC)c(Cl)c(Nc2nccnc2-c2cc(Nc3ccc(CN4CCN(CCO)CC4)cn3)ncn2)c1Cl` [Compound 100], the GI50 (class symbols) was less than 100 nM.

For `COc1cc(OC)c(Cl)c(Nc2nccnc2-c2cc(Nc3ccc(CN4CCN(C(=O)CO)CC4)cn3)ncn2)c1Cl` [Compound 101], for the setting “class symbols”, the concentration for 50% growth inhibition (GI50) is less than 100 nM.

As for `COc1cc(OC)c(Cl)c(Nc2nccnc2-c2cc(Nc3ccc(C(C)O)cn3)ncn2)c1Cl` (stereo not drawn) [Compound 102, {6-[3-(2,6-Dichloro-3,5-dimethoxy-phenylamino)-pyrazin-2-yl]-pyrimidin-4-yl}-(5-[1-hydroxyethyl]-pyridin-2-yl)-amine], the GI50 (class symbols) is less than 100 nM.

With `COc1ccc(F)c(Nc2nccnc2-c2cc(N)ncn2)c1F` [Compound 103, {6-[3-(2,6-Difluoro-3-methoxy-phenylamino)-pyrazin-2-yl]-pyrimidin-4-yl}-amine], the GI50 (given as bound) was more than 500 nM.

For the molecule `COc1ccc(F)c(Nc2nccnc2-c2cc(Nc3ccc(CN4CCOCC4)cn3)ncn2)c1F` [Compound 104, {6-[3-(2,6-Difluoro-3-methoxy-phenylamino)-pyrazin-2-yl]-pyrimidin-4-yl}-N-(5-(morpholin-4-ylmethyl)-pyridin-2-yl)-amine], where the note is “class symbols”, the 50% growth inhibitory concentration (GI50) was less than 100 nM.

In the case of `COc1ccc(F)c(Nc2nccnc2-c2cc(Nc3cc(CN4CCOCC4)ccn3)ncn2)c1F` [Compound 105, {6-[3-(2,6-Difluoro-3-methoxy-phenylamino)-pyrazin-2-yl]-pyrimidin-4-yl}-(4-(morpholin-4-ylmethyl)-pyridin-2-yl)-amine], under “class symbols”, the concentration for 50% growth inhibition (GI50) is less than 100 nM.

Regarding `Nc1cc(-c2nccnc2Nc2c(Cl)cccc2Cl)ncn1` [Compound 106, 6-(3-(2,6-dichlorophenylamino)pyrazin-2-yl)pyrimidin-4-amine], for the setting “class symbols”, the GI50 was less than 100 nM.

Under “given as bound”, `Clc1cccc(Cl)c1Nc1nccnc1-c1cc(Nc2ccc(CN3CCOCC3)cn2)ncn1` [Compound 107, 6-(3-(2,6-dichlorophenylamino)pyrazin-2-yl)-N-(5-(morpholinomethyl)pyridin-2-yl)pyrimidin-4-amine] registered a concentration for 50% growth inhibition (GI50) of more than 500 nM.
